Experiment in all cases: NCI tumour cell line growth inhibition, 48 h
Assay [1] concerns ACHN renal.
For assay [2], the system named is SK-OV-3 ovarian.
The subject of assay [3] is NCI-H226 lung.
Assay [4] deals with OVCAR-8 ovarian.
Assay [5] concerns A549 NSCLC.
The test system of assay [6] is M14 melanoma.
Assay [7] has as its system MOLT-4 leukemia.
Assay [8] deals with MDA-MB-435.
The subject of assay [9] is NCI-H460 lung.
For assay [10], the system named is IGROV1 ovarian.

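Test compounds were applied to cells in 96-well plates for 48 hours at 5 doses. Here, GI50 denotes the concentration required for 50% inhibition of growth. The concentration for full growth arrest is given as TGI.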 Where a SMILES comes first, the peptide text is derived from it. Bridges are numbered along the chain shown (N, C = ends). Roman numbers before positions name the chains, in order. [ ]: non-standard residue; d: D form. The star is where a group is joined. Heptadecanoyl = CCCCCCCCCCCCCCCCC(=O)*; Phg = N[CH](C(=O)O)c1ccccc1 Bounds are passed on as bounds.

For `CN(C)C1COC2Cc3ccccc3C1O2` (stereo not given), the TGI in assay [1], in assay [2], in assay [3], in assay [4], in [5] and in [6] was above 100 µM throughout. The TGI in assay [7], in assay [8], in assay [9] and in assay [10] was above 100 µM each time.

Take `CCCCCCCCCCCCCCCCC(=O)N1CCCC1C(=O)NCC(=O)NC(C(=O)N1CCCC1C(=O)NC(CO)C(=O)NC(Cc1ccc(O)cc1)C(=O)NC(CCCCNC(=O)C1CCCN1C(=O)C(CCCCN)NC(=O)C(CCCCN)NC(=O)C(CCCCN)NC(=O)C(CCCNC(=N)N)NC(=O)C(CCCCN)NC(=O)C(N)C(C)C)C(=O)NC(CC(C)C)C(=O)NC(CCCNC(=N)N)C(=O)N1CCCC1C(=O)NCC(N)=O)c1ccccc1` (stereo not given) (I: Heptadecanoyl-PG[Phg]PSYKLRPG-NH2 / II: H-VKRKKKP; amide I:7-II:C; configuration not given here): the GI50 in assay [2] was 23.1 µM; in [3] it was 22.1 µM; in [4], 28.2 µM; in assay [5], 23.9 µM; in [6], 25.3 µM; in assay [7], 16.3 µM. For the same compound, the results for the GI50 in assay [8], in assay [9] and in assay [10] were 18.9 µM, 23.2 µM and 24.8 µM, respectively. For the same compound, the TGI in assay [2] amounted to 51.4 µM; in [3], 49.3 µM; in [4], 84.6 µM; in assay [5], 53.3 µM; in assay [6], 99.7 µM; in assay [7] it was 44.8 µM. Moreover, the TGI in [8] is 83.9 µM; in [9], above 100 µM; in assay [10], 75.7 µM.

For the compound `Nc1nc(Cl)cc(NCC2(CO)CC(Cc3ccccc3)C2)n1` (stereo not given), the TGI in [1] was above 100 µM; in assay [2] it was above 100 µM; in [3], above 91.1 µM; in assay [4] it was above 100 µM; in [5] it was above 100 µM; in [6], 37.1 µM. The TGI in assay [7] is above 71.4 µM; in assay [8], above 78.1 µM; in assay [9], above 100 µM; in assay [10], above 100 µM.

For the compound `CCOC(=O)C(SCCO)C(C(=O)OCC)n1cc(C)c(=O)[nH]c1=O` (stereo not given), the TGI was above 57.1 µM in assay [1]; above 100 µM in assay [2]; above 61.4 µM in assay [3]; above 62.7 µM in [4]; above 100 µM in assay [5]; 25 µM in [6]. For the same compound, the TGI in [7] is 42.1 µM; in [8] it was above 56.1 µM; in [9] it was above 100 µM; in assay [10], above 65.4 µM.

Take `N=C(N)c1ccc(-c2ccc(-c3ccc(C(=N)N)cc3)o2)cc1`: the TGI in assay [1], in assay [2], in assay [3], in assay [4], in [5] and in assay [6] was above 100 µM each time. The TGI in assay [7] is 77.5 µM; in [8], above 100 µM; in assay [9], 40 µM; in assay [10], above 100 µM.

With `COC(=O)c1cc(/C=C2\Cc3cc4c(cc3C2=O)CCC4)cc2c1CCC2`, the TGI in [1], in [2], in [3], in [4], in [5] and in [6] was above 100 µM throughout. Besides, the TGI in [7], in assay [8], in assay [9] and in assay [10] was above 100 µM throughout.

Turning to `COc1cc(OC)nc(NC(=O)NS(=O)(=O)c2cccc3ncn(C)c(=O)c23)n1`, the TGI in assay [1], in assay [2], in assay [3], in assay [4], in assay [5] and in [6] was above 100 µM throughout. For the same compound, the TGI in assay [7], in assay [8] and in assay [10] was above 100 µM throughout.

With `Cc1ccc(S(=O)(=O)N/N=C2/CC[C@H](C(C)(C)C)C[C@@H]2C)cc1`, the TGI in assay [1] worked out at 30.3 µM; in [2], 36.6 µM; in assay [3], 28.3 µM; in assay [4], 29.9 µM; in [5] it was 33.4 µM; in [6], 26.6 µM. Moreover, the TGI in [7] worked out at 31.1 µM; in assay [8], 32.7 µM; in [9] it was 32.2 µM; in [10] it was 30 µM.

For the compound `Cn1c(=O)c2c(nc3sc4ncccc4c(=O)n32)n(C)c1=O`, the TGI in assay [1], in assay [2], in [3], in [4], in assay [6] and in assay [7] was above 100 µM in each case. Also, the TGI in assay [8], in assay [9] and in assay [10] was above 100 µM each time.

On to `Cc1cc(-c2ccc(Cl)cc2)c(C#N)c(=S)n1C1OC(CO)C(O)C(O)C1O` (stereo not given), for which the TGI in assay [1], in assay [2], in [3], in [4], in [5] and in assay [6] was above 100 µM each time. Moreover, the TGI in assay [7], in assay [8], in assay [9] and in assay [10] was above 100 µM each time.

Regarding `COc1ccc(N=C2C(=Nc3ccc(OC)cc3)N(c3ccccc3[N+](=O)[O-])C(=S)N2c2ccc(OC)cc2)cc1`, the TGI in assay [1], in [2], in [3], in assay [4], in assay [5] and in assay [6] was above 100 µM in each case. Besides, the TGI in assay [7], in assay [8] and in [10] was above 100 µM throughout.

For `CC1(C)OC([C@H](O)CO)C([C@H]2NCCS2)O1` (stereo not given in full), the TGI in [1], in [2], in assay [3], in assay [4], in assay [5] and in [6] was above 100 µM throughout. In addition, the TGI in [7], in assay [8], in [9] and in assay [10] was above 100 µM in each case.

Regarding `O=C1c2cccnc2-c2nccc3ccnc1c23`, the TGI was 1.46 µM in assay [1]; 2.9 µM in assay [2]; 2.98 µM in assay [3]; 2.17 µM in [4]; 6.82 µM in assay [5]; 2.43 µM in assay [6]. The TGI in assay [7] came out at 0.756 µM; in assay [8], 0.38 µM; in assay [9], 12.8 µM; in assay [10] it was 2.12 µM.

On to `CC(=O)O[C@H]1C(=O)[C@@]2(C)[C@H]([C@H](OC(=O)c3ccncc3)[C@]3(O)C[C@H](OC(=O)[C@H](O)[C@@H](NC(=O)c4ccccc4)c4ccccc4)C(C)=C1C3(C)C)[C@]1(OC(C)=O)CO[C@@H]1C[C@@H]2O`, for which the TGI in assay [1], in assay [2], in [3], in assay [4], in assay [5] and in assay [6] was above 25 µM throughout. For the same compound, the TGI in assay [7] was above 25 µM; in assay [8], 1.96 µM; in assay [9], above 25 µM; in assay [10], above 25 µM.

`Oc1ccc2c3c1OC1c4[nH]c5c(c4CC4(O)C(C2)N(CC2CC2)CC[C@]314)CC1(O)C2Cc3ccc(O)c4c3[C@@]1(CCN2CC1CC1)C5O4` (stereo not given in full): the TGI in assay [1] is above 100 µM; in [2] it was above 100 µM; in [3], 88.7 µM; in [4], above 100 µM; in assay [5], 37.6 µM; in assay [6], 32 µM. Further, the TGI in assay [7] is 53.9 µM; in assay [8] it was 37.6 µM; in [10] it was above 100 µM.

As to `Clc1cccc(Cl)c1C1SCc2nc3ncccc3n21` (stereo not given), the TGI in assay [1], in assay [2], in assay [3], in assay [4], in assay [5] and in assay [6] was above 100 µM each time. The TGI in assay [7], in assay [8], in assay [9] and in [10] was above 100 µM throughout.

In the case of `Cc1ccc2cccc(OC(=O)c3cc4c(cc3Cl)Sc3nccn3S4(=O)=O)c2n1`, the TGI in assay [1] is 38.7 µM; in [2] it was 84.2 µM; in assay [3], above 75.7 µM; in [4], 28.8 µM; in assay [5], 28.5 µM; in assay [6], 25.7 µM. Further, the TGI in [7] stood at 19.8 µM; in [8], 26.1 µM; in assay [9] it was 10.4 µM; in assay [10], 17.5 µM.

Consider `CN(C)CC1CN(C(=O)Nc2ccccc2)C(=N)O1` (stereo not given), for which the TGI in [1], in assay [2], in [3], in assay [4], in assay [5] and in [6] was above 100 µM throughout. Moreover, the TGI in assay [7], in assay [8], in assay [9] and in [10] was above 100 µM throughout.

Turning to `O=C1NCN(c2ccccc2)C12CCN(CCCSc1ccc(F)cc1)CC2`, the TGI in assay [1] is above 80.5 µM; in [2], above 100 µM; in assay [3], above 88 µM; in assay [4], above 100 µM; in assay [5], above 100 µM; in assay [6] it was 21.7 µM. The TGI is above 100 µM in assay [7], 32.6 µM in assay [8], above 100 µM in assay [9] and 51.3 µM in [10].

Turning to `COc1cc2c(cc1OC)C(=O)/C(=C/c1ccccc1)C2`, the TGI in assay [1], in assay [2], in [3], in assay [4], in assay [5] and in [6] was above 100 µM in each case. Moreover, the TGI in assay [7] was 43.9 µM; in assay [8] it was above 100 µM; in [9], above 100 µM; in assay [10], above 100 µM.

For the compound `CO[C@H]1C[C@H](O[C@H]2CC[C@]3(C=O)[C@H]4CC[C@]5(C)[C@@H](C6=CC(=O)OC6)CC[C@]5(O)[C@@H]4CC[C@]3(O)C2)O[C@H](C)[C@H]1O[C@@H]1O[C@H](CO[C@@H]2O[C@H](CO)[C@@H](O)[C@H](O)[C@H]2O)[C@@H](O)[C@H](O)[C@H]1O`, the TGI in assay [1] worked out at 0.135 µM; in assay [2], 0.21 µM; in assay [3] it was 0.32 µM; in assay [4], 0.167 µM; in [5], 0.0254 µM; in [6], 0.312 µM. For the same compound, the TGI in assay [7] was 1.07 µM; in [8] it was 0.281 µM; in assay [9], 0.0425 µM; in assay [10] it was 0.825 µM.

For `CC1(c2nc3cc(Cl)c(Cl)cc3[nH]2)CCC(C(=O)O)C(C)(C)O1` (stereo not given), the TGI in assay [1], in assay [2], in [3], in [4], in assay [5] and in assay [6] was above 100 µM in each case. In addition, the TGI in [7], in [8] and in assay [10] was above 100 µM each time.

Take `CC1(CC(=O)OC(C#C[Si](C)(C)C)Cc2ccccc2)OCCO1` (stereo not given): the TGI in assay [1], in assay [2], in assay [3], in assay [4], in assay [5] and in assay [6] was above 100 µM throughout. Further, the TGI in assay [7], in [8] and in assay [10] was above 100 µM in each case.

For `Nc1nc(Cl)nc2c1ncn2C1CCC(CO)O1` (stereo not given), the TGI in assay [2], in assay [3], in [4], in assay [6], in [7] and in assay [8] was above 100 µM throughout. Besides, the TGI in assay [9] and in assay [10] was above 100 µM each time.

The values above are taken from PubChem BioAssay (NCI).
